Like-named read-outs stand apart in the source and are kept apart here.
Assays:
[1] = tested on: L. donovani promastigotes; assay: In vitro antileishmanial assay, L. donovani promastigotes (Alamar Blue); format: cell-based, Leishmania donovani; settings: for IC50: read-out: L. Donovani Promastigote IC50; for IC90: read-out: L. Donovani Promastigote IC90
Experimental: (§1) IC50 and IC90 values were computed from the dose–response curves using XLfit software. DFMO (difluoromethylornithine) was used as the positive control. The antiprotozoal activities of the H. afrum fractions and isolated compounds were evaluated in vitro against L. donovani promastigotes, axenic amastigotes and intracellular amastigotes in THP1 cells. The fractions and some isolated compounds were also evaluated against T. brucei trypomastigote forms.

[2] = General cytotoxicity against THP1 cells; format: cell-based, human; settings: human, THP1 cells
TbHK1 = tested on: TbHK1; set-up: method as in PMID 20971104; settings: read-out: TbHK1 inhibition IC50; cited from earlier work
[3] = tested on: L. donovani axenic amastigotes; assay: In vitro antileishmanial assay, L. donovani axenic amastigotes (Alamar Blue); format: cell-based, Leishmania donovani
Experimental: as §1

[4] = tested on: L. donovani intracellular amastigotes in THP1 cells; assay: In vitro antileishmanial assay, intracellular amastigotes in THP1 cells (parasite rescue and transformation assay); format: cell-based, Leishmania donovani
Experimental: as §1

[5] = tested on: Trypanosoma brucei trypomastigotes; assay: In vitro antitrypanosomal assay, T. brucei trypomastigotes (Alamar Blue); format: cell-based
Experimental: as §1

THP1 cells = assay: General cytotoxicity against THP1 cells; format: cell-based, human; settings: Table 1
[6] = Leishmania donovani, isolated compounds, Table 1, tested range 0.4–10 ug/mL
[7] = Leishmania donovani, Table 1, read-out: L. Donovani Amastigote IC50
[8] = Leishmania donovani, Table 1, read-out: L. Donovani Amastigote IC90
[9] = Leishmania donovani, THP-1, Table 1, read-out: L. Donovani Amastigote/THP1 IC50
[10] = Leishmania donovani, THP-1, Table 1, read-out: L. Donovani Amastigote/THP1 IC90
[11] = Trypanosoma brucei, isolated compounds
[12] = Leishmania donovani, fractions, Table 2
[13] = Leishmania donovani, Table 2, read-out: L. Donovani Amastigote IC50
[14] = Leishmania donovani, Table 2, read-out: L. Donovani Amastigote IC90
[15] = Leishmania donovani, THP-1, Table 2, read-out: L. Donovani Amastigote/THP IC50
[16] = Leishmania donovani, THP-1, Table 2, read-out: L. Donovani Amastigote/THP IC90
[17] = isolated compounds, Table 1, tested range 0.4–10 ug/mL

Compound	IC50 [1, 6] [µM]	IC90 [1, 6] [µM]	IC50 ([2]; Table 1) [µM]	IC90 ([2]; Table 1) [µM]	IC50 [3, 7] [µM]	IC90 [3, 8] [µM]	IC50 [4, 9] [µM]	IC90 [4, 10] [µM]	IC50 [5, 11] [µM]	IC90 [5, 11] [µM]	also measured
O=c1c(O)c(-c2ccc(O)c(O)c2)oc2cc(O)cc(O)c12 [Compound 1, quercetin]	> 10	> 10	> 10	> 10	> 10	> 10	> 10	> 10	7.52	9.76	IC50 (TbHK1): 4.1 µM
O=c1c(-c2c(O)cc(O)c3c(=O)cc(-c4ccc(O)cc4)oc23)c(-c2ccc(O)cc2)oc2cc(O)cc(O)c12 [Compound 3, biapigenin]	> 10	> 10	> 10	> 10	> 10	> 10	> 10	> 10	> 10	> 10	–
O=c1c(O)c(-c2cc(O)c(O)c(OC3OC(CO)C(O)C(O)C3O)c2)oc2cc(O)cc(O)c12 [Compound 7, myricetin-3’-O-β-D-glucopyranoside]	> 10	> 10	> 10	> 10	> 10	> 10	> 10	> 10	> 10	> 10	–
C[C@@H]1[C@H](O)[C@@H](C)/C=C/C=C/C=C/C=C/C=C/C=C/C=C/[C@H](O[C@@H]2O[C@H](C)[C@@H](O)[C@H](N)[C@@H]2O)C[C@@H]2O[C@](O)(C[C@@H](O)C[C@@H](O)[C@H](O)CC[C@@H](O)C[C@@H](O)CC(=O)O[C@H]1C)C[C@H](O)[C@H]2C(=O)O [AMB, Amphotericin, reference compound]	–	–	> 2	> 2	–	–	–	–	–	–	IC50 [1, 12]: 0.138 µg/mL; IC90 [1, 12]: 0.188 µg/mL; IC50 ([2]; Table 2): > 2 µg/mL; IC90 ([2]; Table 2): > 2 µg/mL; IC50 [3, 13]: 0.304 µg/mL; IC90 [3, 14]: 0.362 µg/mL; IC50 [4, 15]: 0.187 µg/mL; IC90 [4, 16]: 0.264 µg/mL
myricitrin [Compound 2]	–	–	–	–	–	–	–	–	–	–	IC50 [1, 17]: > 10 µM; IC90 [1, 17]: > 10 µM; IC50 (THP1 cells): > 10 µM; IC90 (THP1 cells): > 10 µM; IC50 ([3]; Table 1, read-out: L. Donovani Amastigote IC50): > 10 µM; IC90 ([3]; Table 1, read-out: L. Donovani Amastigote IC90): > 10 µM; IC50 ([4]; Table 1, read-out: L. Donovani Amastigote/THP1 IC50): > 10 µM; IC90 ([4]; Table 1, read-out: L. Donovani Amastigote/THP1 IC90): > 10 µM; IC50 ([5]; isolated compounds): > 10 µM; IC90 ([5]; isolated compounds): > 10 µM
O=c1c(O[C@@H]2O[C@H](CO)[C@H](O)[C@H](O)[C@H]2O)c(-c2ccc(O)c(O)c2)oc2cc(O)cc(O)c12 [Compound 5, hyperoside]	> 10	> 10	> 10	> 10	> 10	> 10	> 10	> 10	> 10	> 10	–
O=c1c(O)c(-c2cc(O)c(O)c(O)c2)oc2cc(O)cc(O)c12 [Compound 4, myricetin]	> 10	> 10	> 10	> 10	> 10	> 10	> 10	> 10	5.71	7.97	IC50 (TbHK1): 48.9 µM
O=c1c(OC2OC(CO)C(O)C(O)C2O)c(-c2cc(O)c(O)c(O)c2)oc2cc(O)cc(O)c12 [Compound 6, myricetin-3-O-β-D-galactopyranoside]	> 10	> 10	> 10	> 10	> 10	> 10	> 10	> 10	> 10	> 10	–
N=C(N)c1ccc(OCCCCCOc2ccc(C(=N)N)cc2)cc1 [PENT, Pentamidine, reference compound]	–	–	> 10	> 10	–	> 10	–	–	0.001	0.002	IC50 [1, 12]: 1.48 µg/mL; IC90 [1, 12]: 2.38 µg/mL; IC50 ([2]; Table 2): > 10 µg/mL; IC90 ([2]; Table 2): > 10 µg/mL; IC50 [3, 13]: 9.58 µg/mL; IC90 [3, 14]: > 10 µg/mL; IC50 [4, 15]: 1.16 µg/mL; IC90 [4, 16]: 5.59 µg/mL; IC50 ([5]; Trypanosoma brucei, fractions): 0.001 µg/mL; IC90 ([5]; Trypanosoma brucei, fractions): 0.002 µg/mL
NCCC[C@](N)(C(=O)O)C(F)F [DFMO, α-difluoromethylornithine, reference compound]	–	–	–	–	–	–	–	–	–	–	T. Brucei IC50 ([5]; fractions): 3.634 µg/mL; T. Brucei IC90 ([5]; fractions): 8.804 µg/mL; IC50 ([5]; isolated compounds): 3.63 µM; IC90 ([5]; isolated compounds): 8.8 µM

From publication PMC7918497, “Proposed Mechanism for the Antitrypanosomal Activity of Quercetin and Myricetin Isolated from Hypericum afrum Lam.: Phytochemistry, In Vitro Testing and Modeling Studies” (Molecules, 2021)
